Measurements as given in patent publication US20250296938A1, “Compounds that Interact with the Ras Superfamily for the Treatment of Cancers, Inflammatory Diseases, Rasopathies, and Fibrotic Disease” (SHY Therapeutics, LLC, priority 2018, published 2025).
Read-outs that look alike come from different tables or passages of the source.

Tests used:
Test in all cases: Ras GTP binding domain inhibition assay (Cy3-GTP/Cy5-GTP competition)
KRas G12C mutant = tested on: KRas G12C mutant; parameters: species or system human; conditions: 20 μM; for KRas G12C mutant + SOS: % inh.: with SOS; for KRas G12C mutant: % inh.: without SOS
Protocol: (§1) The following method was developed as specific assay for the following proteins: KRas wild type, KRas Q61H mutant, KRas G12C mutant, KRas G12D mutant, HRas wild type, Rac-1, and Rho-A.
(§2) • 25 mM Tris-HCl, pH 7.4 • 27 mM KCl • 137 mM NaCl • 1 mM MgCl2 • 1 mM DTT
(§3) • 50 mM Tris-HCl, pH 7.0 • 1 mM MgCl2 • 1 mM DTT
(§4) The small GTPases proteins: KRas wild type. KRas Q61H mutant, KRas G12C mutant, KRas G12D mutants, HRas wild type, Rac-1, and Rho-A were expressed as His-tagged proteins. In addition, the Guanosine nucleotide Exchange Factor (GEF) Sos protein (residues 556-1049) was expressed as a His-tagged protein. In cells, the guanine nucleotide exchange factor Sos protein promotes activation of Ras proteins by stimulating an exchange of GDP for GTP. The inclusion of Sos to the Ras GTP binding domain inhibition assay may be considered as an alternative representation of physiological cellular conditions for evaluating the inhibitory activity of some of the tested small molecules.
(§5) For the assay, all purified small GTPases proteins were diluted in Buffer-I or Buffer-II to a final concentration of 10-30 μg/mL. 200 μL of each diluted protein was added to a nickel-coated 96-well plate and incubated overnight at 4° C. Then the protein solution was discarded and 200 μL of Buffer-I or Buffer-II was added to each well in the presence of 1% DMSO. Compounds to be tested were added to the protein-coated wells at final concentration of 20 μM, and incubated for 3 hours at room temperature with and without […] of Sos added to the final hour of the incubation. When performing IC50 measurements a serial dilution of all tested concentrations was added. Then Cy3-GTP or Cy5-GTP was added to each well to a final concentration of 100 nM. The labeled GTP was incubated for 45 minutes at room temperature. Following GTP incubation, wells were washed 3× in Buffer-I or Buffer-II and 200 μL of Buffer-I or Buffer-II was added to each well. Following washes, the amount of bound labeled-GTP was measured using a SpectraMax M3 (Molecular Devices).

KRas Q61H mutant = tested on: KRas Q61H mutant; parameters: species or system human; conditions: 20 μM; for KRas Q61H mutant + SOS: % inh.: with SOS; for KRas Q61H mutant: % inh.: without SOS
Protocol: as §1, §2, §3, §4, §5

KRas wild type = tested on: KRas wild type; parameters: species or system human; conditions: 20 μM; for KRas wild type + SOS: % inh.: with SOS; for KRas wild type: % inh.: without SOS
Protocol: as §1, §2, §3, §4, §5

KRas G12D mutant = molecular target: T1, KRas G12D mutant (Homo sapiens, UniProt P01116, G12D); conditions: 20 μM
T1 construct: fused on or other part: His tag, used for capture on nickel-coated plates
Protocol: as §1, §2, §3, §4, §5

[1] = with SOS, read-out: KRas G-12D mutant + SOS: % inh.
[2] = without SOS, read-out: KRas G12D mutant: % inh.

Compound | KRas G12C mutant + SOS: % inh. (KRas G12C mutant) | KRas G12C mutant: % inh. (KRas G12C mutant) | KRas Q61H mutant + SOS: % inh. (KRas Q61H mutant) | KRas Q61H mutant: % inh. (KRas Q61H mutant) | KRas wild type + SOS: % inh. (KRas wild type) | KRas wild type: % inh. (KRas wild type) | inhibition at 20 µM (KRas G12D mutant; [1]) [%] | inhibition at 20 µM (KRas G12D mutant; [2]) [%]
COC1CCN(c2nc(-c3nccn3C)nc3sc(-c4ccccc4CO)c(-c4ccccc4)c23)C1.Cl (stereo not drawn) | D (76-100% inhibition) | A (1-25% inhibition) | D (76-100% inhibition) | B (26-50% inhibition) | D (76-100% inhibition) | B (26-50% inhibition) | 51 to 75 | 51 to 75
COC1CCN(c2nc(-c3nccn3C)nc3sc(-c4ccc(N)nc4C)c(-c4ccccc4)c23)C1.Cl (stereo not drawn) | A (1-25% inhibition) | A (1-25% inhibition) | A (1-25% inhibition) | A (1-25% inhibition) | A (1-25% inhibition) | A (1-25% inhibition) | 1 to 25 | 1 to 25
COC1CCN(c2nc(-c3nccn3C)nc3sc(-c4ccc(CO)cc4)c(-c4ccccc4)c23)C1.Cl (stereo not drawn) | D (76-100% inhibition) | 0 (0% inhibition) | D (76-100% inhibition) | 0 (0% inhibition) | D (76-100% inhibition) | 0 (0% inhibition) | 51 to 75 | 1 to 25
COC1CCN(c2nc(-c3nccn3C)nc3sc(-c4ccncc4C)c(-c4ccccc4)c23)C1.Cl (stereo not drawn) | B (26-50% inhibition) | B (26-50% inhibition) | B (26-50% inhibition) | A (1-25% inhibition) | A (1-25% inhibition) | B (26-50% inhibition) | 26 to 50 | 26 to 50
COC1CCN(c2nc(-c3nccn3C)nc3sc(-c4ccnc(N(C)C)c4)c(-c4ccccc4)c23)C1.Cl (stereo not drawn) | D (76-100% inhibition) | A (1-25% inhibition) | D (76-100% inhibition) | D (76-100% inhibition) | D (76-100% inhibition) | C (51-75% inhibition) | 51 to 75 | 51 to 75
COC(=O)c1nc(C2NCCN2C)nc(O)c1O (stereo not drawn) | C (51-75% inhibition) | D (76-100% inhibition) | C (51-75% inhibition) | C (51-75% inhibition) | B (26-50% inhibition) | C (51-75% inhibition) | 26 to 50 | 51 to 75
COC1CCN(c2nc(-c3nccn3C)nc3sc(-c4cnn(C)c4)c(-c4ccccc4)c23)C1.Cl (stereo not drawn) | D (76-100% inhibition) | C (51-75% inhibition) | D (76-100% inhibition) | B (26-50% inhibition) | D (76-100% inhibition) | B (26-50% inhibition) | 76 to 100 | 26 to 50
COc1ccc(-c2sc3nc(-c4nccn4C)nc(N4CCC(OC)C4)c3c2-c2ccccc2)cn1.Cl (stereo not drawn) | D (76-100% inhibition) | 0 (0% inhibition) | D (76-100% inhibition) | B (26-50% inhibition) | D (76-100% inhibition) | A (1-25% inhibition) | 51 to 75 | 26 to 50
COC1CCN(c2nc(-c3nccn3C)nc3sc(-c4ccnn4C)c(-c4ccccc4)c23)C1.Cl (stereo not drawn) | C (51-75% inhibition) | C (51-75% inhibition) | C (51-75% inhibition) | B (26-50% inhibition) | C (51-75% inhibition) | B (26-50% inhibition) | 51 to 75 | 51 to 75
COc1ncccc1-c1sc2nc(-c3nccn3C)nc(N3CCC(OC)C3)c2c1-c1ccccc1.Cl (stereo not drawn) | C (51-75% inhibition) | C (51-75% inhibition) | C (51-75% inhibition) | C (51-75% inhibition) | C (51-75% inhibition) | C (51-75% inhibition) | 51 to 75 | 51 to 75
COC1CCN(c2nc(-c3nccn3C)nc3sc(-c4cccnc4)c(-c4ccccc4)c23)C1.Cl (stereo not drawn) | D (76-100% inhibition) | D (76-100% inhibition) | C (51-75% inhibition) | B (26-50% inhibition) | C (51-75% inhibition) | C (51-75% inhibition) | 51 to 75 | 51 to 75
COc1cc(-c2sc3nc(-c4nccn4C)nc(N4CCC(OC)C4)c3c2-c2ccccc2)ccn1.Cl (stereo not drawn) | D (76-100% inhibition) | C (51-75% inhibition) | C (51-75% inhibition) | C (51-75% inhibition) | C (51-75% inhibition) | C (51-75% inhibition) | 51 to 75 | 51 to 75
